Each block holds one compound with its values, some of them ahead of it.
Columns and labels:
FmlH = FmlH (Escherichia coli, UniProt A0A0H2V7F6); test: ELISA of FmlH lectin domain binding with TF antigen as competitive ligand; design: species or system uropathogenic Escherichia coli (UPEC); conditions: for loss of activity relative to parent compound I: FmlH ELISA IC50 ratio
[1] = In vivo pharmacokinetics in mice; conditions: mice plasma PK
Mouse pharmacokinetics = type: in vivo, C3H/HeN mice; conditions: mice, PO
[2] = cited from earlier work
[3] = rats; cited from earlier work

SMILES: CS(=O)(=O)Nc1cccc(-c2ccccc2C[C@@H]2O[C@H](CO)[C@H](O)[C@H](O)[C@H]2F)c1 [Compound 28]
improvement of potency on replacing 2-position OH with F (FmlH; FmlH ELISA, relative to 27): 2 fold

SMILES: CC(=O)N[C@H]1[C@H](Oc2cccc(C(F)(F)F)c2-c2cccc(C(=O)NS(C)(=O)=O)c2)O[C@H](CO)[C@H](O)[C@@H]1O [Compound 11]
loss of activity relative to parent compound I (FmlH): ~ 10 fold

AUC relative to 67 [1]: ~4 fold | urine concentration relative to FmlH IC50 (Mouse pharmacokinetics): over 300 fold | urine concentration achieved (Mouse pharmacokinetics; high urine concentration quoted in the conclusion): 61 µM
SMILES: CC(=O)N[C@H]1[C@H](Oc2cccc(C(F)(F)F)c2-c2ccc(F)cc2)O[C@H](CO)[C@H](O)[C@@H]1O [Compound 69]

SMILES: CC(=O)N[C@H]1[C@H](Oc2cccc(C(F)(F)F)c2-c2cccc(CS(C)(=O)=O)c2)O[C@H](CO)[C@H](O)[C@@H]1O [Compound 9]
loss of activity relative to parent compound I (FmlH): ~ 10 fold

SMILES: CC(=O)N[C@H]1[C@H](Oc2cccc(C(F)(F)F)c2-c2cccc(NS(C)(=O)=O)c2)O[C@H](CO)[C@H](O)[C@@H]1O [I]
metabolic stability ([2]; SGF, SIF, mouse liver microsomes, blood plasma): good metabolic stability | stability in plasma and simulated gut and intestinal fluids [2]: good stability | oral bioavailability (F) [3]: < 1%

SMILES: CS(=O)(=O)Nc1cccc(-c2ccccc2C[C@@H]2O[C@H](CO)[C@H](O)[C@H](O)[C@H]2[N+](=O)[O-])c1 [Compound 34]
IC50 (FmlH; FmlH ELISA, average of four replicates): all activity against FmlH was eliminated
